The source of these data is patent publication US20180303878A1, “TREATMENT FOR INFECTION COMPOSED OF MENSTRUAL STEM CELLS” (CELLS FOR CELLS, S.P.A., priority 2015, published 2018).

Each structure is given as a SMILES string.

Common to all, as to assay type: in vivo, C57BL6/j mice
Assay [1] deals with CLP-induced sepsis. As to the kind of experiment: Survival in polymicrobial CLP-induced sepsis (Kaplan-Meier). Conditions: 96 hours after treatment; treatment 3 hours after CLP; MenSCs 7.5×10^5 cells/mice intra-peritoneal, Enrofloxacin 5 mg/kg. The protocol: (§1) In vivo studies were performed at the Universidad de los Andes-Cells for Cells Animal Facility (Santiago, Chile) in accordance with the institutional guidelines for the care and use of laboratory animals in research, revised and approved by the Institutional Ethical Committee for animal experimentation. C57BL6/j mice (8 to 12 weeks old; Jackson Laboratories, Bar Harbor, Me., USA) received ad libitum access to food and water during the whole experimental procedure. CLP-induced sepsis was performed as described previously (Rittirsch D et al., Immunodesign of experimental sepsis by cecal ligation and puncture. Nat Protoc. 2009) with some modifications. Briefly, mice were anesthetized with inhaled Sevofluorane (Baxter, Guayama, Puerto Rico) by using an anesthetic vaporizer. […]
(§2) Three hours after CLP-induced sepsis, mice were randomized and distributed into different experimental groups to receive single injections of saline (vehicle) (n=16), antibiotics (AB) (n=22), MenSCs (n=21), MenSCs+AB (n=22), MenSC CM (n=16), or MenSC CM+AB (n=22). […] For Kaplan-Meier survival curves, animals were assessed after CLP-induced sepsis every 12 hours for 4 days. […]
Data are expressed as mean±standard error. […]

For assay [2], the system named is CLP-induced sepsis. As to the kind of experiment: Blood biochemical analysis in CLP mice. As to conditions: serum 24 hours post-surgery; sham 47.67±3.18, saline 90±21.47. The method, then:
as §1, with “modifications.” for “modifications. Briefly, mice were anesthetized with inhaled Sevofluorane (Baxter, Guayama, Puerto Rico) by using an anesthetic vaporizer.”
as §2
Plasma levels of blood urea nitrogen (BUN), bilirubin, alanine aminotransferase (ALT), aspartate aminotransferase (AST), alkaline phosphatase (ALP), albumin, amylase, and glucose were evaluated by using the Piccolo Xpress™ Chemistry Analyzer (Abaxis, Union City, Calif., USA) in accordance with the instructions of the manufacturer. […]

The test system of assay [3] is CLP-induced sepsis. The assay is described as follows: Cytokine multiplex array evaluation in CLP mice. As to conditions: 40 hours post-CLP, P≤0.05. The method, then:
as §1
The levels of inflammatory cytokines-monocyte chemoattractant protein-1 (MCP-1), TNF-α, IL-6, and […]—in CLP mice serum samples were determined by using a commercial BD™ Cytometric Bead Array Mouse Inflammation Kit (BD Biosciences Pharmingen, San Diego, Calif., USA) in accordance with the instructions of the manufacturer. Analysis was carried out by flow cytometry, and the concentration (in picograms per milliliter) was determined by using FCAP Array software (BD Biosciences). The parameters were determined 24 and 40 hours after CLP surgery.

Assay [4] concerns CLP-induced sepsis. As to the kind of experiment: Bacterial numbers in blood, peritoneal cavity and spleen in CLP-induced sepsis. Conditions: 24 hours post-CLP, in comparison with saline group, P≤0.05. The protocol:
as §1, with “vaporizer. After a 1-cm incision was performed, the cecum was exposed and ligated in the middle portion with 5-0 dafilon suture (Braun, Rubi, Spain), punctured once with an 18-gauge needle (in order to induce high-grade sepsis), and returned to the peritoneal cavity. The abdominal incision was sutured with catgut 5-0 (Braun, Bogota, Colombia), and the skin was closed with Histoacryl (Braun).” for “vaporizer.”
Total blood, peritoneal fluid, and homogenized spleen in sterile saline were plated in a 10-fold dilution on blood agar plates and incubated at 37° C. overnight, and the number of CFUs was determined.

For `CCN1CCN(c2cc3c(cc2F)c(=O)c(C(=O)O)cn3C2CC2)CC1` [AB, Enrofloxacin], in the assay on CLP-induced sepsis [1], the survival rate is recorded as 73%. Moreover, the “alkaline phosphatase (ALP) concentration” value with CLP-induced sepsis [2] was 74.25±12.03 U/l. In addition, in the assay on CLP-induced sepsis [3] (in comparison with saline group), the IL-6 serum levels result was “decreased”. In addition, the “levels of IL-10” value in the assay on CLP-induced sepsis [3] (in comparison with untreated mice) is “reduction”. In the assay on CLP-induced sepsis [4], the “CFU counts in peritoneal lavage” value is “decreased”.
